Measurements as given in US9174998B2, “(6S,9aS)-N-benzyl-6-[(4-hydroxyphenyl)methyl]-4,7-dioxo-8-({6-[3-(piperazin-1-yl)azetidin-1-yl]pyridin-2-yl}methyl)-2-(prop-2-en-1-yl)-octahydro-1H-pyrazino[2,1-c][1,2,4]triazine-1-carboxamide compound” (Eisai R&D Management Co., Ltd., priority 2013, dated 2015).
Converted amounts (≈) assume the structure as drawn. Where two headings read alike, the source gives them in different places.

Key:
[1] = PAMPA test (parallel artificial membrane permeability assay); format: in vitro ADME; settings: phosphate buffer pH 6.8, about 200 μM, about 5 hours, room temperature, read-out: Test Example 4 membrane permeation coefficient Pe
Experimental: A test solution (see below) was stirred while shaking at room temperature for about 5 hours using a 96-well PAMPA plate (BD Biosciences) in which a lipid had been precoated onto a polyvinylidene fluoride (PVDF) film to evaluate the membrane permeation coefficient Pe (cm/s) of each compound dissolved in the test solution (concentration: about 200 μM) upon the transport of the compound from a donor side to an acceptor side through a lipid membrane. The Pe value was calculated in accordance with equations 1 and 2, and the concentration of the compound on the donor side and the acceptor side was measured by a HPLC-UV method. In 0.3 mL of the test solution on the donor side is contained about 1% (v/v) of DMSO, since 3 μL of a DMSO solution containing the compound at a concentration of 20 mM was added to the test solution.
Test solution: a phosphate buffer solution having a pH value of 6.8 (90 mM of phosphate, 48 mM of NaCl, 5.4 mM of KCl)
Conditions for stirring: a multishaker MS-300 (AS ONE Corporation), 350 rpm
[formula] CD(t): compound concentration in donor well at time t CA(t): compound concentration in acceptor well at time t VD: donor well volume (0.3 mL) VA: acceptor well volume (0.2 mL) A: filter area (0.3 cm^2)

[2] = test system: Wnt signal; assay: Detection of Wnt signal (TOPglow luciferase reporter, LiCl-stimulated); format: cell-based; settings: Homo sapiens; HEK293 clone carrying pNeo-TOP reporter; LiCl stimulation; luciferase luminescence; read-out: Test Example 1 IC50 (concentration required for inhibiting the Wnt signal activity by 50%)
Experimental: pcDNA3.1(+) (invitrogen) was cleaved with restriction enzymes BglII and NotI, and an adapter BEHKS having a sequence shown below (containing restriction enzyme sites BglII, EcoRI, HindIII, KpnI, SacI and NotI) was inserted thereinto, thereby producing a plasmid pNeo-HKS.
Subsequently, a fragment having a length of about 2700 bp (containing a Wnt-responsive sequence and a luciferase gene), which was prepared by cleaving from a TOPglow plasmid contained in a TOPglow/FOPglow TCF Reporter Kit (upstate Catalog#17-366) with restriction enzymes HindIII and KpnI, was inserted between HindIII and KpnI in pNeo-HKS, thereby producing a plasmid pNeo-TOP. The plasmid pNeo-TOP was introduced into human fetus-derived renal cell strain HEK293, then a compound was selected using G418, and then a cell clone strain was established by a limiting dilution method. The cell clone strain was subjected to a Wnt signal detection test.
The cell clone strain was subcultured in a D-MEM glucose-rich culture medium (Wako Pure Chemical Industries, Ltd.) containing 10% FBS, and cells in a growth phase were used in the test. Cells were collected using trypsin-EDTA, the number of the cells was counted, and then the cells were suspended in a D-MEM glucose-rich culture medium containing 10% FBS so that the number of cells became 2×10^5 cells/mL. The cell suspension was added to a 96-well cell culture plate (Greiner Bio-One Co., Ltd., product number: 655083) in an amount of 0.1 mL/well and then cultured overnight in a 5% CO2 incubator (37° C.). After the culturing, a substance to be tested, which was dissolved in DMSO, was diluted with a D-MEM glucose-rich culture medium containing 10% of FBS and 80 mM of LiCl to produce a sample solution. The sample solution (0.1 mL) was added to each well and then cultured in a 5% CO2 incubator (37° C.) […]. Six hours after the addition of the sample solution, a supernatant was removed from each well, and then 50 μL of Bright-Glo™ Luciferase substrate (Promega, product number: E2620) was added thereto. The plate was put on a plate mixer for several seconds, and then the emission of light from each well was measured using a EnVision™ Multilabel plate reader (PerkinElmer Co., Ltd.). The Wnt signal activation rate (%) of each well was determined, and a concentration (IC50) which is required for inhibiting the Wnt signal activity of a substance of interest by 50% was calculated, wherein the luminosity of a well to which a sample solution was not added and LiCl was added was defined as a 100% Wnt signal activity and the luminosity of a well to which either of a sample solution or LiCl was not added was defined as a 0% Wnt signal activity.

[3] = Evaluation of metabolic stability; format: in vitro ADME, human; settings: 0.2 mg/mL HLM, 0.1 μM test substance, 15 minutes at 37° C., with vs without NADPH production
Experimental: A test substance was dissolved in DMSO so that the concentration of the resultant solution became 20 mM, and the solution was diluted with DMSO so that the concentration of the resultant solution became 1 mM. The metabolic stability of the test substance was evaluated using a human liver microsome (HLM) in which human liver was pooled. An assay buffer solution contained 0.2 mg/mL of HLM, a 0.1 M of phosphate potassium buffer solution (pH 7.4), 0.1 mM of EDTA, 0.33 mM of NADP+, 8 mM of glucose-6-phosphate, 0.1 U/mL of glucose-6-phosphate dehydrogenase, 6 mM of MgCl2, 0.1 μM of a test substance (final concentration in DMSO: 0.01%) in 0.15 mL of the final incubation volume. Fifteen minutes after the initiation of the reaction at 37° C., 0.15 mL of a acetonitrile/methanol mixed solution (7:3, by volume) was added to the solution to terminate the reaction. After centrifugation, the resultant supernatant was analyzed by LC-MSMS, peak areas were compared under the presence or absence of the production of NADPH, and the residual ratio of the test substance was calculated.

[4] = Evaluation of solubility (DMSO stock into PBS, HPLC-UV); format: physicochemical; settings: Dulbecco's phosphate-buffered saline pH 7, room temperature, about 15 minutes shaking, values greater than 200 μM regarded as 200 μM, read-out: Test Example 3 solubility
Experimental: To 0.25 mL of a test solution a mentioned below was added 2.5 μL of a DMSO solution having a compound concentration of 20 mM. The resultant solution was shaken at room temperature for about 15 minutes (the conditions for the shaking are mentioned below). Subsequently, a supernatant was collected by a suction filtration under a reduced pressure. A DMSO solution having a compound concentration of 200 μM was used as a standard solution, and the concentration of a compound in a filtrate which was quantified by a HPLC-UV method was employed as a solubility (rounded off to the whole number). In this evaluation, since a value 200 μM became the upper limit operationally, all of quantification values greater than 200 μM were regarded as 200 μM.
Test solution: GIBCO (registered trade name) Dulbecco's phosphate-buffered saline (pH 7, Life Technologies Corporation)
Conditions for shaking: a microplate shaker N-704 (Nissinrika Corporation), speed 6

[5] = aqueous buffer, kinetic from dmso stock

Row | Compound | Papp [1] [×10⁻⁶ cm/s] | IC50 [2] [nM] | Test Example 2 residual ratio of the test substance [3] [%] | solubility [4, 5] [µM] | solubility [4] [µM]
1 | C=CCN1CC(=O)N2[C@@H](Cc3ccc(O)cc3)C(=O)N(Cc3cccc(N4CC(N5CCN(CC)CC5)C4)n3)C[C@@H]2N1C(=O)NCc1ccccc1 [Example 2, (6S,9aS)-N-Benzyl-8-((6-(3-(4-ethylpiperazin-1-yl)azetidin-1-yl)pyridin-2-yl)methyl)-6-((4-hydroxyphenyl)methyl)-4,7-dioxo-2-(prop-2-en-1-yl)-octahydro-1H-pyrazino[2,1-c][1,2,4]triazine-1-carboxamide] | 1.32 | 290 | 58 | – | 200 (≈ 142 µg/mL)
2 | C=CCN1CC(=O)N2[C@@H](Cc3c(F)cc(O)cc3F)C(=O)N(Cc3cccc(N4CC(N5CCN(C)C[C@@H]5C)C4)n3)C[C@@H]2N1C(=O)NCc1ccccc1 [Example 17, (6S,9aS)-N-Benzyl-6-((2,6-difluoro-4-hydroxyphenyl)methyl)-8-((6-(3-((2S)-2,4-dimethylpiperazin-1-yl)azetidin-1-yl)pyridin-2-yl)methyl)-4,7-dioxo-2-(prop-2-en-1-yl)-octahydro-1H-pyrazino[2,1-c][1,2,4]triazine-1-carboxamide] | 0.89 | 210 | 60 | 195 (≈ 145 µg/mL) | –
3 | C=CCN1CC(=O)N2[C@@H](Cc3ccc(O)cc3F)C(=O)N(Cc3cccc(N4CC(N5CCN(C)C[C@@H]5C)C4)n3)C[C@@H]2N1C(=O)NCc1ccccc1 [Example 15, (6S,9aS)-N-Benzyl-8-((6-(3-((2S)-2,4-dimethylpiperazin-1-yl)azetidin-1-yl)pyridin-2-yl)methyl)-6-((2-fluoro-4-hydroxyphenyl)methyl)-4,7-dioxo-2-(prop-2-en-1-yl)-octahydro-1H-pyrazino[2,1-c][1,2,4]triazine-1-carboxamide] | 2.38 | 75 | 45 | 195 (≈ 142 µg/mL) | –
4 | C=CCN1CC(=O)N2[C@@H](Cc3ccc(O)cc3F)C(=O)N(Cc3ccc(F)c(N4CC(N5CCC(N(C)C)CC5)C4)n3)C[C@@H]2N1C(=O)NCc1ccccc1 [Reference Example 3, (6S,9aS)-N-Benzyl-8-((6-(3-(4-(dimethylamino)piperidin-1-yl)azetidin-1-yl)-5-fluoropyridin-2-yl)methyl)-6-((2-fluoro-4-hydroxyphenyl)methyl)-4,7-dioxo-2-(prop-2-en-1-yl)-octahydro-1H-pyrazino[2,1-c][1,2,4]triazine-1-carboxamide] | 0.55 | 110 | 50 | 199 (≈ 151 µg/mL) | –

Second part, the compound after the results:

Row | Papp [1] [×10⁻⁶ cm/s] | IC50 [2] [nM] | Test Example 2 residual ratio of the test substance [3] [%] | solubility [4, 5] [µM] | solubility [4] [µM] | Compound
5 | 0.51 | 220 | 63 | 197 (≈ 147 µg/mL) | – | C=CCN1CC(=O)N2[C@@H](Cc3c(F)cc(O)cc3F)C(=O)N(Cc3cccc(N4CC(N5CCN(C)[C@@H](C)C5)C4)n3)C[C@@H]2N1C(=O)NCc1ccccc1 [Example 16, (6S,9aS)-N-Benzyl-6-((2,6-difluoro-4-hydroxyphenyl)methyl)-8-((6-(3-((3S)-3,4-dimethylpiperazin-1-yl)azetidin-1-yl)pyridin-2-yl)methyl)-4,7-dioxo-2-(prop-2-en-1-yl)-octahydro-1H-pyrazino[2,1-c][1,2,4]triazine-1-carboxamide]
6 | 1.18 | 82 | 39 | – | 200 (≈ 145 µg/mL) | C=CCN1CC(=O)N2[C@@H](Cc3ccc(O)cc3F)C(=O)N(Cc3cccc(N4CC(N5CCN(C)[C@H](C)C5)C4)n3)C[C@@H]2N1C(=O)NCc1ccccc1 [Example 5, (6S,9aS)-N-Benzyl-8-((6-(3-((3R)-3,4-dimethylpiperazin-1-yl)azetidin-1-yl)pyridin-2-yl)methyl)-6-((2-fluoro-4-hydroxyphenyl)methyl)-4,7-dioxo-2-(prop-2-en-1-yl)-octahydro-1H-pyrazino[2,1-c][1,2,4]triazine-1-carboxamide]
7 | 2.3 | 200 | 40 | 195 (≈ 139 µg/mL) | – | C=CCN1CC(=O)N2[C@@H](Cc3ccc(O)cc3)C(=O)N(Cc3ccc(F)c(N4CC(N5CCN(C)CC5)C4)n3)C[C@@H]2N1C(=O)NCc1ccccc1 [Example 8, (6S,9aS)-N-Benzyl-8-((5-fluoro-6-(3-(4-methylpiperazin-1-yl)azetidin-1-yl)pyridin-2-yl)methyl)-6-((4-hydroxyphenyl)methyl)-4,7-dioxo-2-(prop-2-en-1-yl)-octahydro-1H-pyrazino[2,1-c][1,2,4]triazine-1-carboxamide]
8 | 1.91 | 77 | 26 | – | 200 (≈ 145 µg/mL) | C=CCN1CC(=O)N2[C@@H](Cc3ccc(O)cc3)C(=O)N(Cc3ccc(F)c(N4CC(N5CCN(C)[C@H](C)C5)C4)n3)C[C@@H]2N1C(=O)NCc1ccccc1 [Example 24, (6S,9aS)-N-Benzyl-8-((6-(3-((3R)-3,4-dimethylpiperazin-1-yl)azetidine-1-yl)-5-fluoropyridin-2-yl)methyl)-6-((4-hydroxyphenyl)methyl)-4,7-dioxo-2-(prop-2-en-1-yl)-octahydro-1H-pyrazino[2,1-c][1,2,4]triazine-1-carboxamide]
